In patent US20110263707A1, “MOSQUITO REPELLENT” (BIO & HNT, INC., priority 2007, published 2011):
Several values for one entry are separate records, joined by “and”; a condition that tells them apart may be missing. Identical values can stand only once.

Tested on: Aedes aegypti
Assay: Examination of repellent activity using skin test (treated forearm in cage of mated female mosquitoes)
Format: in vivo
Details: for Effective repellency duration (average ± standard deviation): protection time until arm bitten by two cumulative mosquitoes
From the text: In this embodiment, Aedes aegypti was used test mosquitoes. The Aedes aegypti was supplied from Korea Research Institute of Bioscience and Biotechnology and reared indoor from generation to generation. The larvae of the Aedes aegypti were reared in a plastic container of 22×14×7 cm containing distilled water with a one to one mixture of chicken feed and yeast. Mosquito pupae were transferred into a paper cup and then placed in a rearing cage to emerge as adults. Here, the rearing cage was constructed with metal net. Males and females of the adult mosquitoes at one to one ratio were put in a rearing cage for two or three days for mating. The female mosquitoes were then used for repellency tests. Eight percent (8%) sugar water was supplied for the adult mosquitoes. The following rearing conditions were maintained: light condition of 16 h:8 h (day:night), temperature of 27±2° C., and relative humidity of 80±10%. In order to examine effectiveness of the mosquito repellents of the prepared sample solutions, one (1) […] of a sample solution was uniformly applied, using a metal rod, on a forearm of a volunteer human test subject between a wrist and an elbow. Thereafter, the arm treated with the test solution was inserted in a bioassay cage constructed with Plexiglass of 50×50×50 cm containing approximately 100 mated female mosquitoes. The number of mosquitoes trying to bite was recorded for three minutes in every thirty minutes for up to 4 hours. The time required to get the arm bitten by two cumulative mosquitoes was regarded as effective repellency duration. A net window of 40×40 cm was present at each side and top of the Plexiglass bioassay cage to allow air ventilation. A 15×15 cm hole was prepared at the front side of the Plexiglass bioassay cage and a long net sleeve was attached to the hole so that the test arm could be put into the cage for repellency test. At the beginning of each repellency test, an arm treated with solvent only was placed in the bioassay cage containing mosquitoes, in order to examine blood feeding activity of the mated female test mosquitoes. This test with the bioassay cage was carried out only when the arm was bitten by at least two mosquitoes for initial three minutes. In Table 3 and Table 4, the repellent efficiency was calculated using the following Equation 1. [formula]

[1] = concentration 2% (0.05 mg/cm^3), 30 minutes
[2] = concentration 2% (0.05 mg/cm^3), 60 minutes
[3] = concentration 2% (0.05 mg/cm^3), 90 minutes
[4] = concentration 2% (0.05 mg/cm^3), 120 minutes
[5] = concentration 2% (0.05 mg/cm^3), 150 minutes
[6] = concentration 2% (0.05 mg/cm^3), 180 minutes
[7] = concentration 2% (0.05 mg/cm^3), 210 minutes
[8] = concentration 2% (0.05 mg/cm^3), 240 minutes
[9] = concentration 2% in 91% isopropyl alcohol (0.05 mg/cm^3)
[10] = concentration 10% (0.25 mg/cm^3), 30 minutes
[11] = concentration 10% (0.25 mg/cm^3), 60 minutes
[12] = concentration 10% (0.25 mg/cm^3), 90 minutes
[13] = concentration 10% (0.25 mg/cm^3), 120 minutes
[14] = concentration 10% (0.25 mg/cm^3), 150 minutes
[15] = concentration 10% (0.25 mg/cm^3), 180 minutes
[16] = concentration 10% (0.25 mg/cm^3), 210 minutes
[17] = concentration 10% (0.25 mg/cm^3), 240 minutes
[18] = concentration 10% in 91% isopropyl alcohol (0.25 mg/cm^3), maximum measurement time 240 minutes

| Structure (SMILES) | Repellent efficiency (%) per time [1] [%] | Repellent efficiency (%) per time [2] [%] | Repellent efficiency (%) per time [3] [%] | Repellent efficiency (%) per time [4] [%] | Repellent efficiency (%) per time [5] [%] | Repellent efficiency (%) per time [6] [%] | Repellent efficiency (%) per time [7] [%] | Repellent efficiency (%) per time [8] [%] | Effective repellency duration (average ± standard deviation) [9] | Effective repellency duration (average ± standard deviation) (concentration 2% in 91% isopropyl alcohol (0.05 mg/cm^3), listed as neric acid) [min] | Repellent efficiency (%) per time [10] [%] | Repellent efficiency (%) per time [11] [%] | Repellent efficiency (%) per time [12] [%] | Repellent efficiency (%) per time [13] [%] | Repellent efficiency (%) per time [14] [%] | Repellent efficiency (%) per time [15] [%] | Repellent efficiency (%) per time [16] [%] | Repellent efficiency (%) per time [17] [%] | Effective repellency duration (average ± standard deviation) [18] | Effective repellency duration (average ± standard deviation) (concentration 10% in 91% isopropyl alcohol (0.25 mg/cm^3), maximum measurement time 240 minutes, listed as neric acid) [min] |
| --- | --- | --- | --- | --- | --- | --- | --- | --- | --- | --- | --- | --- | --- | --- | --- | --- | --- | --- | --- | --- |
| CC(C)=CCC/C(C)=C\C(=O)O [Neric acid, (Z,E)-3,7-dimethyl-2,6-octadienoic acid] | 100 | 83.1 | 70.4 | 52.1 | 39.4 | 26.8 | 18.3 | 14.1 | 106 ± 16.3 min | 106 | 100 | 100 | 100 | 100 | 100 | 100 | 100 | 95.3 | 240 ± 0 min | 240 |
| CCC(C)OC(=O)N1CCCCC1CCO (centres unmarked) [Picadirin] |  |  |  |  |  |  |  |  |  |  | 85.0 | 85.0 | 85.0 | 80.0 | 75.0 | 72.5 | 62.5 | 47.5 | 158 min and 158 ± 27.5 min |  |
| CCN(CC)C(=O)c1cccc(C)c1 [DEET, N,N-diethyl-m-toluamide] | 100 | 0 | 0 | 0 | 0 | 0 | 0 | 0 | 70 min and 70 ± 10.0 min |  | 100 | 100 | 100 | 100 | 87.5 | 81.3 | 78.1 | 71.9 | 218 min and 218 ± 10.8 min |  |
